According to PubChem BioAssay (NCI):
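Where inhibition never reached the appropriate level, the endpoint shown equals the highest concentration tested. Otherwise, values were interpolated linearly from a five-concentration, 48-hour dose response in 96-well plates. TGI denotes the concentration required for complete inhibition of growth.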

Columns and labels:
Test in all cases: NCI tumour cell line growth inhibition, 48 h
HOP-18 NSCLC = system: HOP-18 NSCLC
A498 renal = system: A498 renal
DLD-1 colon = system: DLD-1 colon
NCI-H23 lung = system: NCI-H23 lung
SNB-75 CNS = system: SNB-75 CNS
HCT-116 colon = system: HCT-116 colon
HCC-2998 colon = system: HCC-2998 colon
MOLT-4 leukemia = system: MOLT-4 leukemia
SNB-78 CNS = system: SNB-78 CNS
SF-295 CNS = system: SF-295 CNS
HOP-62 NSCLC = system: HOP-62 NSCLC
SF-539 CNS = system: SF-539 CNS
M19-MEL melanoma = system: M19-MEL melanoma
XF 498 CNS = system: XF 498 CNS
SK-MEL-2 melanoma = system: SK-MEL-2 melanoma
MCF7 breast = system: MCF7 breast
A549 NSCLC = system: A549 NSCLC
HT29 colon = system: HT29 colon
NCI-H226 lung = system: NCI-H226 lung
RPMI-8226 leukemia = system: RPMI-8226 leukemia
CCRF-CEM leukemia = system: CCRF-CEM leukemia
OVCAR-4 ovarian = system: OVCAR-4 ovarian
HOP-92 NSCLC = system: HOP-92 NSCLC
NCI/ADR-RES ovarian = system: NCI/ADR-RES ovarian
EKVX NSCLC = system: EKVX NSCLC
SF-268 CNS = system: SF-268 CNS
RXF 393 renal = system: RXF 393 renal
OVCAR-8 ovarian = system: OVCAR-8 ovarian
HCT-15 colon = system: HCT-15 colon
UO-31 renal = system: UO-31 renal
NCI-H522 lung = system: NCI-H522 lung
HL-60(TB) leukemia = system: HL-60(TB) leukemia
OVCAR-5 ovarian = system: OVCAR-5 ovarian
P388 leukemia = system: P388 leukemia
NCI-H460 lung = system: NCI-H460 lung
KM12 colon = system: KM12 colon
DMS 114 small cell lung = system: DMS 114 small cell lung
SW-620 colon = system: SW-620 colon
DMS 273 small cell lung = system: DMS 273 small cell lung
LOX IMVI melanoma = system: LOX IMVI melanoma
IGROV1 ovarian = system: IGROV1 ovarian
OVCAR-3 ovarian = system: OVCAR-3 ovarian
SN12K1 renal = system: SN12K1 renal
U251 CNS = system: U251 CNS
UACC-62 melanoma = system: UACC-62 melanoma
UACC-257 melanoma = system: UACC-257 melanoma
SK-OV-3 ovarian = system: SK-OV-3 ovarian
SK-MEL-5 melanoma = system: SK-MEL-5 melanoma
K-562 leukemia = system: K-562 leukemia
SN12C renal = system: SN12C renal
MALME-3M melanoma = system: MALME-3M melanoma
SK-MEL-28 melanoma = system: SK-MEL-28 melanoma
COLO 205 colon = system: COLO 205 colon
CAKI-1 renal = system: CAKI-1 renal
P388/ADR leukemia = system: P388/ADR leukemia
KM20L2 colon = system: KM20L2 colon
SNB-19 CNS = system: SNB-19 CNS

Q: Which results are given for `O=C1c2ccccc2OCC1/C=N/O` (stereo unspecified)?
A: TGI (HOP-18 NSCLC): > 100 µM; TGI (A498 renal): > 100 µM; TGI (DLD-1 colon): > 100 µM; TGI (NCI-H23 lung): > 100 µM; TGI (SNB-75 CNS): > 100 µM; TGI (HCT-116 colon): > 100 µM; TGI (HCC-2998 colon): > 100 µM; TGI (MOLT-4 leukemia): > 100 µM; TGI (SNB-78 CNS): > 100 µM; TGI (SF-295 CNS): > 100 µM; TGI (HOP-62 NSCLC): > 100 µM; TGI (SF-539 CNS): > 100 µM; TGI (M19-MEL melanoma): > 100 µM; TGI (XF 498 CNS): > 100 µM; TGI (SK-MEL-2 melanoma): > 100 µM; TGI (MCF7 breast): > 100 µM; TGI (A549 NSCLC): > 100 µM; TGI (HT29 colon): > 100 µM; TGI (NCI-H226 lung): > 100 µM; TGI (RPMI-8226 leukemia): > 100 µM; TGI (CCRF-CEM leukemia): > 100 µM; TGI (OVCAR-4 ovarian): > 100 µM; TGI (HOP-92 NSCLC): > 96 µM; TGI (NCI/ADR-RES ovarian): > 100 µM; TGI (EKVX NSCLC): > 100 µM; TGI (SF-268 CNS): > 100 µM; TGI (RXF 393 renal): 76.4 µM; TGI (OVCAR-8 ovarian): > 100 µM; TGI (HCT-15 colon): > 100 µM; TGI (UO-31 renal): > 100 µM; TGI (NCI-H522 lung): 62.1 µM; TGI (HL-60(TB) leukemia): > 100 µM; TGI (OVCAR-5 ovarian): > 100 µM; TGI (P388 leukemia): > 63.7 µM; TGI (NCI-H460 lung): > 100 µM; TGI (KM12 colon): > 100 µM; TGI (DMS 114 small cell lung): 98.9 µM; TGI (SW-620 colon): > 100 µM; TGI (DMS 273 small cell lung): > 100 µM; TGI (LOX IMVI melanoma): > 100 µM; TGI (IGROV1 ovarian): > 100 µM; TGI (OVCAR-3 ovarian): > 100 µM; TGI (SN12K1 renal): > 100 µM; TGI (U251 CNS): > 100 µM; TGI (UACC-62 melanoma): > 100 µM; TGI (UACC-257 melanoma): > 100 µM; TGI (SK-OV-3 ovarian): > 100 µM; TGI (SK-MEL-5 melanoma): > 100 µM; TGI (K-562 leukemia): > 100 µM; TGI (SN12C renal): > 100 µM; TGI (MALME-3M melanoma): > 100 µM; TGI (SK-MEL-28 melanoma): > 100 µM

Q: How did the TGI (HOP-18 NSCLC) turn out when `CC1[C@@H]2CC=C3C4CCC5Cc6nc7c(nc6C[C@@]5(C)C4CC(=O)[C@]32CO[C@@]1(O)C(O)CC(C)(C)O)CC1CCC2C3=C[C@H]4O[C@@]5(O[C@@](C)(CO)C[C@@H]5O)C(C)[C@@]4(O)[C@]3(C)[C@@H](O)CC2[C@]1(C)C7` (stereo partly specified) was run?
A: Its TGI is 0.739 µM.

Q: What about the TGI (A498 renal) of the same compound?
A: The TGI was 0.0112 µM.

Q: What about the TGI (DLD-1 colon) of the same compound?
A: The TGI was 1.15 µM.

Q: And the TGI (NCI-H23 lung)?
A: The TGI was 0.0272 µM.

Q: And the TGI (SNB-75 CNS)?
A: Its TGI is 0.00313 µM.

Q: What about the TGI (HCT-116 colon) of the same compound?
A: The TGI was 0.501 µM.

Q: And the TGI (HCC-2998 colon)?
A: Its TGI is 0.832 µM.

Q: What about the TGI (MOLT-4 leukemia) of the same compound?
A: Its TGI is 0.376 µM.

Q: What about the TGI (SNB-78 CNS) of the same compound?
A: Its TGI is 0.483 µM.

Q: And the TGI (SF-295 CNS)?
A: Its TGI is 0.000713 µM.

Q: What about the TGI (HOP-62 NSCLC) of the same compound?
A: Its TGI is 0.00248 µM.

Q: And the TGI (SF-539 CNS)?
A: Its TGI is 0.0423 µM.

Q: And the TGI (M19-MEL melanoma)?
A: The TGI was 0.729 µM.

Q: What about the TGI (XF 498 CNS) of the same compound?
A: The TGI was 0.0502 µM.

Q: What about the TGI (SK-MEL-2 melanoma) of the same compound?
A: Its TGI is 0.0891 µM.

Q: What about the TGI (MCF7 breast) of the same compound?
A: The TGI was 0.192 µM.

Q: And the TGI (A549 NSCLC)?
A: The TGI was 0.383 µM.

Q: What about the TGI (HT29 colon) of the same compound?
A: The TGI was 0.0484 µM.

Q: And the TGI (NCI-H226 lung)?
A: Its TGI is 0.376 µM.

Q: What about the TGI (RPMI-8226 leukemia) of the same compound?
A: The TGI was 0.045 µM.

Q: And the TGI (CCRF-CEM leukemia)?
A: Its TGI is 0.0294 µM.

Q: What about the TGI (COLO 205 colon) of the same compound?
A: Its TGI is 0.0608 µM.

Q: And the TGI (OVCAR-4 ovarian)?
A: The TGI was 1.29 µM.

Q: And the TGI (CAKI-1 renal)?
A: The TGI was 0.417 µM.

Q: And the TGI (HOP-92 NSCLC)?
A: The TGI was 1.12 µM.

Q: And the TGI (NCI/ADR-RES ovarian)?
A: Its TGI is 2.74 µM.

Q: And the TGI (EKVX NSCLC)?
A: The TGI was 0.0479 µM.

Q: What about the TGI (SF-268 CNS) of the same compound?
A: The TGI was 0.124 µM.

Q: And the TGI (P388/ADR leukemia)?
A: The TGI was 0.0891 µM.

Q: And the TGI (OVCAR-8 ovarian)?
A: Its TGI is 3.6 µM.

Q: What about the TGI (HCT-15 colon) of the same compound?
A: The TGI was 0.33 µM.

Q: What about the TGI (UO-31 renal) of the same compound?
A: The TGI was 0.0836 µM.

Q: What about the TGI (NCI-H522 lung) of the same compound?
A: Its TGI is 0.124 µM.

Q: What about the TGI (KM20L2 colon) of the same compound?
A: The TGI was 0.137 µM.

Q: And the TGI (HL-60(TB) leukemia)?
A: The TGI was 0.0581 µM.

Q: And the TGI (OVCAR-5 ovarian)?
A: Its TGI is 0.0628 µM.

Q: What about the TGI (NCI-H460 lung) of the same compound?
A: Its TGI is 0.0364 µM.

Q: And the TGI (KM12 colon)?
A: Its TGI is 0.571 µM.

Q: And the TGI (DMS 114 small cell lung)?
A: The TGI was 0.0471 µM.

Q: And the TGI (SW-620 colon)?
A: The TGI was 0.0564 µM.

Q: And the TGI (DMS 273 small cell lung)?
A: The TGI was 0.00174 µM.

Q: What about the TGI (LOX IMVI melanoma) of the same compound?
A: Its TGI is 0.0914 µM.

Q: What about the TGI (IGROV1 ovarian) of the same compound?
A: Its TGI is 0.736 µM.

Q: What about the TGI (OVCAR-3 ovarian) of the same compound?
A: The TGI was 2.36 µM.

Q: And the TGI (SN12K1 renal)?
A: Its TGI is 0.406 µM.

Q: And the TGI (U251 CNS)?
A: The TGI was 0.0345 µM.

Q: What about the TGI (UACC-62 melanoma) of the same compound?
A: Its TGI is 0.0108 µM.

Q: And the TGI (UACC-257 melanoma)?
A: The TGI was 0.112 µM.

Q: What about the TGI (SK-OV-3 ovarian) of the same compound?
A: The TGI was 0.0279 µM.

Q: What about the TGI (SK-MEL-5 melanoma) of the same compound?
A: Its TGI is 0.0469 µM.

Q: And the TGI (K-562 leukemia)?
A: The TGI was 0.434 µM.

Q: What about the TGI (SNB-19 CNS) of the same compound?
A: The TGI was 0.329 µM.

Q: What about the TGI (SN12C renal) of the same compound?
A: The TGI was 2.9 µM.

Q: What about the TGI (MALME-3M melanoma) of the same compound?
A: Its TGI is 0.0911 µM.
